We go through 23 compounds from patent US9346798B2, “Dihydrobenzoxazine and tetrahydroquinoxaline sodium channel inhibitors” (AMGEN INC., priority 2012, dated 2016).

As a reminder, the IC50 is the concentration at which inhibition is half-maximal. A lower IC50 goes with greater potency. By inhibition is commonly meant the drop in the measured response relative to a control, in per cent.

Holding throughout (assay type): cell-based
For series [1], the target named is T1, Nav 1.7 (Homo sapiens (Human), UniProt Q15858). Kind of series: Nav 1.7 in vitro assay, IonWorks Quattro (IWQ) population patch-clamp. To be noted: HEK 293 cells stably transfected with Nav 1.7; 26th pulse to -20 mV. As for the experimental part: (§1) Nav 1.7 and Nav 1.5 In Vitro Assays
(§2) HEK 293 cells stably transfected with either Nav 1.7 or with Nav 1.5 were recorded in population patch-clamp mode with the IonWorks® Quattro automated electrophysiology system in accordance with the manufacturer's specifications (Molecular Devices, LLC, Sunnyvale, Calif.). Sodium channel currents were measured in response to a train of depolarizations that induced successively greater inactivation.
(§3) Cells were held at −110 mV for three seconds (Nav 1.7) or half a second (Nav 1.5) from a holding voltage of −15 mV, then put through a series of 26 pulses of 150 msec duration to −20 mV at a frequency of 5 Hz. Cells were then left unclamped for a period of 3 to 8 minutes while a single concentration of test compound was added. Cells were then reclamped and put through the same voltage protocol. Current at the end of the 26th pulse to −20 mV was subtracted from the peak current evoked by the 26th pulse to −20 mV to correct for leak current. Percent block was calculated for each concentration in duplicate, and IC50 curves were fitted to percent block as a function of concentration.
In general terms: In patch-clamp work, channel activity is measured electrically.

A further series concerns the target Nav 1.5 (Homo sapiens (Human), UniProt Q14524). Kind of series: Nav 1.5 in vitro assay, IonWorks Quattro (IWQ) population patch-clamp. The conditions noted are these: HEK 293 cells stably transfected with Nav 1.5; 26th pulse to -20 mV. As for the experimental part:
as §1, §2, §3

Series [2] deals with T1, Nav 1.7. Kind of series: Nav 1.7 in vitro PX assay, PatchXpress whole cell voltage clamp. The conditions noted are these: HEK 293 cells stably transfected with human Nav1.7; for IC50: partially inactivated state (20 to 50% inactivation); for inhibition at 4.9 µM: HEK293, values marked *, read-out: Nav 1.7 PX percent inhibition at 4.9 μM. In a few lines:
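Partially inactivated channels (20–50% inactivation at holding potential) were probed on automated patch clamp in stably transfected HEK293 cells, stepping to −10 mV for 20 msec every 10 s (0.1 Hz).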

Sequence of Nav 1.5 (Q14524 whole entry): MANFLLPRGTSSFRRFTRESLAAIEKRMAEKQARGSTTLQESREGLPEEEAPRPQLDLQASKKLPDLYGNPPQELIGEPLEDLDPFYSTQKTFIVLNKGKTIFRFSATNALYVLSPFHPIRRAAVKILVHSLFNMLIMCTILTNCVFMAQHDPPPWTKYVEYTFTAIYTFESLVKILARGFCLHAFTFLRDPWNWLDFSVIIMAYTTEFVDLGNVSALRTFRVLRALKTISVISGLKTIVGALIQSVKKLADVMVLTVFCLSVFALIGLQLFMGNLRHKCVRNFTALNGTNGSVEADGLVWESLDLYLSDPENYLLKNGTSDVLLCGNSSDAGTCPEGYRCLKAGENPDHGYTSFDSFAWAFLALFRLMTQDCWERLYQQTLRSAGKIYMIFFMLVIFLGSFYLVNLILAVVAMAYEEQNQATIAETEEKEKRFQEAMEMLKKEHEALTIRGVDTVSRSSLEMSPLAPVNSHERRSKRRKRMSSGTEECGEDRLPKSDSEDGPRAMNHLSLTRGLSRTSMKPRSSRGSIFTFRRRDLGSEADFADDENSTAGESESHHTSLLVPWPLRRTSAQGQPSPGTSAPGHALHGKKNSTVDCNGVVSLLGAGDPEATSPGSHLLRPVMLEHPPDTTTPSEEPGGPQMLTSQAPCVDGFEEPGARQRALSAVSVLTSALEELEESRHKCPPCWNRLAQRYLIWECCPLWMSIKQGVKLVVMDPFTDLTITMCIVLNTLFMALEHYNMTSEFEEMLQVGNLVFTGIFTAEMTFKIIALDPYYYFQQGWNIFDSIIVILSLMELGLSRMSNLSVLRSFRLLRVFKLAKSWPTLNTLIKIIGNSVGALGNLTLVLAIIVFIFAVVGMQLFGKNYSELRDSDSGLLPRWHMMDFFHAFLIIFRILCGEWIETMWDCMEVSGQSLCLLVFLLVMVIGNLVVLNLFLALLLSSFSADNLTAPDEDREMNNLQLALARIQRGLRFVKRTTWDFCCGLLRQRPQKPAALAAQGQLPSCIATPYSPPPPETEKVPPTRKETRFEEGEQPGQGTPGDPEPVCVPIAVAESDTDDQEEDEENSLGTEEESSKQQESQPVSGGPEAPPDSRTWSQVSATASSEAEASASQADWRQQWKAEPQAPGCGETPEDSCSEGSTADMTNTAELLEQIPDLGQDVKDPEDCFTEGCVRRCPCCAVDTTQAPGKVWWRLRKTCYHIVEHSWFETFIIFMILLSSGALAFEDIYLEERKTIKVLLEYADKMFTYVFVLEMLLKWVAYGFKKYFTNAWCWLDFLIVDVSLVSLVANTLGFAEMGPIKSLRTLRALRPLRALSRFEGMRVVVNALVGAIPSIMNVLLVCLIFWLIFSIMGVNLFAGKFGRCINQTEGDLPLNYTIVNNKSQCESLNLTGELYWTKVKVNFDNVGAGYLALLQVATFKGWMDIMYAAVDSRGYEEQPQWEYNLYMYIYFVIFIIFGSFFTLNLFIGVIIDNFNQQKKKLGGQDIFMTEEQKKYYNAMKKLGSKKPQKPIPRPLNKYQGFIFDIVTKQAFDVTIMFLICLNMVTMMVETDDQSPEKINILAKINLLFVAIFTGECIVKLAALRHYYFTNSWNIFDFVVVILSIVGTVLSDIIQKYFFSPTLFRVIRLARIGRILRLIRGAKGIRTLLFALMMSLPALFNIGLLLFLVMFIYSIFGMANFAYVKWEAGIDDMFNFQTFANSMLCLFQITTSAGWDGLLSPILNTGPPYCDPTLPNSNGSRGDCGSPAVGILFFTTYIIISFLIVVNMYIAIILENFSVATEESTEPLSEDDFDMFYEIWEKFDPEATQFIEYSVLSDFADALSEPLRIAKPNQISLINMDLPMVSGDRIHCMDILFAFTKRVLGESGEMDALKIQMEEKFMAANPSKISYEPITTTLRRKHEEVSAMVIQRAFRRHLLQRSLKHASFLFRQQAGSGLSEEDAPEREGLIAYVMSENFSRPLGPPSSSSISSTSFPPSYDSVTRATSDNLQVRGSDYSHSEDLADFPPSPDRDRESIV
T1 sequence (Q15858 whole entry): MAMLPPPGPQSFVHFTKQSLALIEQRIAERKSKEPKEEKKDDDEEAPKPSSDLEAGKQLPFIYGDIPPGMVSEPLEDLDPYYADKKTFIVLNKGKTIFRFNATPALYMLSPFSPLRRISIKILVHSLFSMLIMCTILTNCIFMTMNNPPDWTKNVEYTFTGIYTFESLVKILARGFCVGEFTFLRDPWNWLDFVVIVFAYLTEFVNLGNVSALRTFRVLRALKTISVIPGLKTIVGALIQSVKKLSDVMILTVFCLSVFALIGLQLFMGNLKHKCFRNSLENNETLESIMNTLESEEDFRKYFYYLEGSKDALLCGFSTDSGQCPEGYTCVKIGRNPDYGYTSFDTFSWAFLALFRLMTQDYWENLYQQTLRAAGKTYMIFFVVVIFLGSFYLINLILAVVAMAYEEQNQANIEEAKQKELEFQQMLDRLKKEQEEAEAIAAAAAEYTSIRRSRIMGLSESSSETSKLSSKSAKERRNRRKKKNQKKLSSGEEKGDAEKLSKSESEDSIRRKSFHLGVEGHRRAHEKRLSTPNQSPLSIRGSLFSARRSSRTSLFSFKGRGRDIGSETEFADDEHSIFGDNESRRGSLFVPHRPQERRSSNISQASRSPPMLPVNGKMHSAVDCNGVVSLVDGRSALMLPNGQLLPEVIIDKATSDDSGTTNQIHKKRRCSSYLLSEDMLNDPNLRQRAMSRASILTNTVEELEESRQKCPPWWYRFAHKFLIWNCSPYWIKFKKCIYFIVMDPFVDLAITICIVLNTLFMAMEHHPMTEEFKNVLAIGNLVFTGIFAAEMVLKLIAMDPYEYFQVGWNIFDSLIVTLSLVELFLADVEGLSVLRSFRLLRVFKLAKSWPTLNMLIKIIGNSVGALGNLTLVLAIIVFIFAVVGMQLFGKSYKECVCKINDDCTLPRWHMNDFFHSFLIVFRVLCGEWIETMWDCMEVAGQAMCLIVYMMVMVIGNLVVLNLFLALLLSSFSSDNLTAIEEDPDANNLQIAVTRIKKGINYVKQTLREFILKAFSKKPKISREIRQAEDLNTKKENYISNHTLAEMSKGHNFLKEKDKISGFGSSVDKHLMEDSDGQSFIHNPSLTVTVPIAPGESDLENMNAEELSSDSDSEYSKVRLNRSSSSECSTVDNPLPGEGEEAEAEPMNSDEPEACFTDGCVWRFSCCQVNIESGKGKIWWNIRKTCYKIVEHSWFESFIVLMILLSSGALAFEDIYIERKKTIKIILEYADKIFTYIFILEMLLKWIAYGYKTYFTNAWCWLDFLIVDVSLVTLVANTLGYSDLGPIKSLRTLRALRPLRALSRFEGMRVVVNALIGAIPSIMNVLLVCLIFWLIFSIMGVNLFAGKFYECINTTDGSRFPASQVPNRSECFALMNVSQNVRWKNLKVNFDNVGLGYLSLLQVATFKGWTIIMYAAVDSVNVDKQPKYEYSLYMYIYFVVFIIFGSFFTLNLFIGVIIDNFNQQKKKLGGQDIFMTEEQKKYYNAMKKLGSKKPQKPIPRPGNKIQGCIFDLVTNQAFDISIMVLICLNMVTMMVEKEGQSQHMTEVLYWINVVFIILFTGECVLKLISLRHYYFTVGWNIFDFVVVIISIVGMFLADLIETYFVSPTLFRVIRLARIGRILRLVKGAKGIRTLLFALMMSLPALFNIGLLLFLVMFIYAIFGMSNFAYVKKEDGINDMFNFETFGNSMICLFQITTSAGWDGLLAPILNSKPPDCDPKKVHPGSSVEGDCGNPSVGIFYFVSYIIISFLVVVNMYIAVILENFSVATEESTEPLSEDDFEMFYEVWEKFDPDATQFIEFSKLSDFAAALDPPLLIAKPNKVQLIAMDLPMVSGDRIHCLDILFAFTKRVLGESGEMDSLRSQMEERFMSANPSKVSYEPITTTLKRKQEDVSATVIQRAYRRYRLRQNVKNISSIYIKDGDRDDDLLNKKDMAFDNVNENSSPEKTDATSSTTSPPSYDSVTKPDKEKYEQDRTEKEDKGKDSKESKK

Regarding `Cn1nccc1-c1cc(C(F)(F)F)ccc1N1CCOc2cc(S(=O)(=O)Nc3nccs3)ccc21` [Example 42, 4-(2-(1-Methyl-1H-Pyrazol-5-Yl)-4-(Trifluoromethyl)Phenyl)-N-(Thiazol-2-Yl)-3,4-Dihydro-2H-Benzo[B][1,4]Oxazine-7-Sulfonamide], the results for the IC50 against Nav 1.7 [1], on Nav 1.5 and against Nav 1.7 [2] were 121 nM, more than 10 µM and 1540 nM, respectively.

Consider `O=S(=O)(Nc1nccs1)c1ccc2c(c1)OCCN2c1cccc(OC(F)F)c1` [Example 172, 4-(3-(Difluoromethoxy)Phenyl)-N-(Thiazol-2-Yl)-3,4-Dihydro-2H-Benzo[B][1,4]Oxazine-7-Sulfonamide 2,2,2-Trifluoroacetate], for which the IC50 on Nav 1.7 [1] is 244 nM; against Nav 1.5, more than 10 µM; against Nav 1.7 [2] it was 936 nM.

In the case of `N#Cc1cc(-c2cccc(F)c2)ccc1N1CCOc2cc(S(=O)(=O)Nc3nccs3)ccc21` [Example 200, 4-(3-Cyano-3′-Fluoro-[1,1′-Biphenyl]-4-Yl)-N-(Thiazol-2-Yl)-3,4-Dihydro-2H-Benzo[B][1,4]Oxazine-7-Sulfonamide], the IC50 on Nav 1.7 [1] is 144 nM; against Nav 1.5, 0.854 µM; against Nav 1.7 [2] it was 150 nM.

Consider `N#Cc1ccc(N2CCOc3cc(S(=O)(=O)Nc4nccs4)ccc32)cc1OC(F)(F)F` [Example 167, 4-(4-cyano-3-(trifluoromethoxy)phenyl)-N-(thiazol-2-yl)-3,4-dihydro-2H-benzo[b][1,4]oxazine-7-sulfonamide], for which the IC50 was 652 nM against Nav 1.7 [1], more than 10 µM at Nav 1.5 and 6150 nM against Nav 1.7 [2].

Regarding `O=S(=O)(Nc1ncns1)c1ccc2c(c1)OCCN2c1ccc(C(F)(F)F)cc1-c1cncnc1` [Example 23, 4-(2-(Pyrimidin-5-Yl)-4-(Trifluoromethyl)Phenyl)-N-(1,2,4-Thiadiazol-5-Yl)-3,4-Dihydro-2H-Benzo[B][1,4]Oxazine-7-Sulfonamide], the figures for the concentration for half-maximal inhibition (IC50) against Nav 1.7 [1], at Nav 1.5 and on Nav 1.7 [2] were 29.8 nM, 5.41 µM and 659 nM, respectively.

For the compound `O=S(=O)(Nc1nccs1)c1ccc2c(c1)OCCN2c1cccc2c1OC(F)(F)O2` [Example 129, 4-(2,2-Difluorobenzo[d][1,3]dioxol-4-yl)-N-(thiazol-2-yl)-3,4-dihydro-2H-benzo[b][1,4]oxazine-7-sulfonamide], the 50% inhibitory concentration (IC50) against Nav 1.7 [1] is 263 nM; at Nav 1.5, more than 10 µM; against Nav 1.7 [2], 2900 nM.

On to `CN1CC=C(c2cc(C(F)(F)F)ccc2N2CCOc3cc(S(=O)(=O)Nc4nccs4)ccc32)CC1` [Example 44, 4-(2-(1-Methyl-1,2,3,6-Tetrahydropyridin-4-Yl)-4-(Trifluoromethyl)Phenyl)-N-(Thiazol-2-Yl)-3,4-Dihydro-2H-Benzo[B][1,4]Oxazine-7-Sulfonamide], for which the IC50 at Nav 1.7 [1] is 14 nM; against Nav 1.5 it was 3.59 µM; against Nav 1.7 [2], 68.7 nM.

With `N#Cc1cc(-c2ccccc2F)ccc1N1CCOc2cc(S(=O)(=O)Nc3nccs3)ccc21` [Example 198, 4-(3-cyano-2′-fluoro-[1,1′-biphenyl]-4-yl)-N-(thiazol-2-yl)-3,4-dihydro-2H-benzo[b][1,4]oxazine-7-sulfonamide], the figures for the concentration for half-maximal inhibition (IC50) against Nav 1.7 [1], on Nav 1.5 and on Nav 1.7 [2] were 627 nM, 1.88 µM and 339 nM, respectively.

In the case of `O=S(=O)(Nc1nccs1)c1ccc2c(c1)OCCN2c1ccccc1C1=CCNCC1` [Example 59, 4-(2-(1,2,3,6-Tetrahydropyridin-4-Yl)Phenyl)-N-(Thiazol-2-Yl)-3,4-Dihydro-2H-Benzo[B][1,4]Oxazine-7-Sulfonamide 2,2,2-Trifluoroacetate], the results for the IC50 against Nav 1.7 [1], on Nav 1.5 and against Nav 1.7 [2] were 15 nM, 5.57 µM and 252 nM, respectively.

Take `COc1cc(C#N)ccc1N1CCOc2cc(S(=O)(=O)Nc3nccs3)ccc21` [Example 181, 4-(4-Cyano-2-Methoxyphenyl)-N-(Thiazol-2-Yl)-3,4-Dihydro-2H-Benzo[B][1,4]Oxazine-7-Sulfonamide 2,2,2-Trifluoroacetate]: the half-inhibitory concentration (IC50) at Nav 1.7 [1] is 7.5 nM; at Nav 1.5, more than 10 µM; at Nav 1.7 [2] it was 175 nM.

Consider `COc1cc(C#N)ccc1CN1CCOc2cc(S(=O)(=O)Nc3nccs3)ccc21` [Example 219, 4-(4-Cyano-2-Methoxybenzyl)-N-(Thiazol-2-Yl)-3,4-Dihydro-2H-Benzo[B][1,4]Oxazine-7-Sulfonamide], for which the IC50 against Nav 1.7 [1] is 5190 nM; at Nav 1.5 it was more than 10 µM. Further, the inhibition at 4.9 µM at Nav 1.7 [2] is 26.2%.

Consider `Cc1cc(F)cnc1N1CCOc2cc(S(=O)(=O)Nc3nccs3)ccc21` [Example 110, 4-(5-Fluoro-3-methylpyridin-2-yl)-N-(thiazol-2-yl)-3,4-dihydro-2H-benzo[b][1,4]oxazine-7-sulfonamide], for which the concentration for half-maximal inhibition (IC50) was 1700 nM at Nav 1.7 [1] and more than 10 µM on Nav 1.5. Also, the inhibition at 4.9 µM on Nav 1.7 [2] is 39.2%.

As for `O=S(=O)(Nc1ccncn1)c1ccc2c(c1)OCCN2c1ccc(C(F)(F)F)cc1C1=CCNCC1` [Example 45, N-(Pyrimidin-4-Yl)-4-(2-(1,2,3,6-Tetrahydropyridin-4-Yl)-4-(Trifluoromethyl)Phenyl)-3,4-Dihydro-2H-Benzo[B][1,4]Oxazine-7-Sulfonamide 2,2,2-Trifluoroacetate], the IC50 against Nav 1.7 [1] worked out at 6.2 nM; at Nav 1.5, 1.2 µM; against Nav 1.7 [2] it was 135 nM.

For `O=S(=O)(Nc1nccs1)c1ccc2c(c1)OCCN2c1ccc(Cl)cc1CC(O)CO` (stereo not drawn) [Example 210, 4-(4-Chloro-2-(2,3-Dihydroxypropyl)Phenyl)-N-(Thiazol-2-Yl)-3,4-Dihydro-2H-Benzo[B][1,4]Oxazine-7-Sulfonamide], the half-maximal inhibitory concentration (IC50) against Nav 1.7 [1] came to 12.5 nM; against Nav 1.5, 6.11 µM; at Nav 1.7 [2], 226 nM.

Turning to `COc1ccccc1N1CCOc2cc(S(=O)(=O)Nc3nccs3)ccc21` [Example 205, 4-(2-methoxyphenyl)-N-(thiazol-2-yl)-3,4-dihydro-2H-benzo[b][1,4]oxazine-7-sulfonamide], the half-maximal inhibitory concentration (IC50) against Nav 1.7 [1] was 38 nM; against Nav 1.5, more than 10 µM; against Nav 1.7 [2] it was 382 nM.

Regarding `N#Cc1cc(F)ccc1N1CCOc2cc(S(=O)(=O)Nc3nccs3)ccc21` [Example 177, 4-(2-cyano-4-fluorophenyl)-N-(thiazol-2-yl)-3,4-dihydro-2H-benzo[b][1,4]oxazine-7-sulfonamide], the values for the IC50 against Nav 1.7 [1], against Nav 1.5 and on Nav 1.7 [2] were 178 nM, more than 10 µM and 1490 nM, respectively.

Take `COc1cc(C#N)ccc1N1CCOc2cc(S(=O)(=O)Nc3nccs3)c(F)cc21` [Example 217, 4-(4-Cyano-2-Methoxyphenyl)-6-Fluoro-N-(Thiazol-2-Yl)-3,4-Dihydro-2H-Benzo[B][1,4]Oxazine-7-Sulfonamide]: the values for the 50% inhibitory concentration (IC50) on Nav 1.7 [1], against Nav 1.5 and on Nav 1.7 [2] were 8 nM, 1.31 µM and 207 nM, respectively.

Consider `O=S(=O)(Nc1ncns1)c1ccc2c(c1)OCCN2c1ccc(C(F)(F)F)cc1-c1cccnc1` [Example 21, 4-(2-(Pyridin-3-Yl)-4-(Trifluoromethyl)Phenyl)-N-(1,2,4-Thiadiazol-5-Yl)-3,4-Dihydro-2H-Benzo[B][1,4]Oxazine-7-Sulfonamide], for which the IC50 turned out to be 15.8 nM against Nav 1.7 [1], 1.33 µM against Nav 1.5 and 162 nM against Nav 1.7 [2].

Regarding `COc1ccc(C#N)c(N2CCOc3cc(S(=O)(=O)Nc4nccs4)ccc32)c1` [Example 189, 4-(2-Cyano-5-Methoxyphenyl)-N-(Thiazol-2-Yl)-3,4-Dihydro-2H-Benzo[B][1,4]Oxazine-7-Sulfonamide], the IC50 was 385 nM against Nav 1.7 [1], 7.59 µM against Nav 1.5 and 3100 nM at Nav 1.7 [2].

For the compound `O=S(=O)(Nc1nccs1)c1ccc2c(c1)OCCN2c1ccc(-n2cccn2)cc1` [Example 141, 4-(4-(1H-pyrazol-1-yl)phenyl)-N-(thiazol-2-yl)-3,4-dihydro-2H-benzo[b][1,4]oxazine-7-sulfonamide], the half-inhibitory concentration (IC50) against Nav 1.7 [1] was determined as 671 nM; against Nav 1.5 it was 2.5 µM; against Nav 1.7 [2] it was 6420 nM.

Consider `O=S(=O)(Nc1nccs1)c1ccc2c(c1)OCCN2c1ccc(OCC(F)(F)F)cc1` [Example 113, N-(thiazol-2-yl)-4-(4-(2,2,2-trifluoroethoxy)phenyl)-3,4-dihydro-2H-benzo[b][1,4]oxazine-7-sulfonamide], for which the values for the IC50 at Nav 1.7 [1], at Nav 1.5 and against Nav 1.7 [2] were 891 nM, 3.37 µM and 2720 nM, respectively.

Turning to `CC1COc2cc(S(=O)(=O)Nc3nccs3)ccc2N1c1ccc(C(F)(F)F)cc1C#N` (racemic) [Example 96, 4-(2-Cyano-4-(Trifluoromethyl)Phenyl)-3-Methyl-N-(Thiazol-2-Yl)-3,4-Dihydro-2H-Benzo[B][1,4]Oxazine-7-Sulfonamide], the IC50 against Nav 1.7 [1] is 823 nM; on Nav 1.5, 1.4 µM; at Nav 1.7 [2], 1890 nM.

Turning to `O=S(=O)(Nc1ncns1)c1ccc2c(c1)OCCN2c1cccc(OC(F)(F)F)c1` [Example 35, N-(1,2,4-Thiadiazol-5-Yl)-4-(3-(Trifluoromethoxy)Phenyl)-3,4-Dihydro-2H-Benzo[B][1,4]Oxazine-7-Sulfonamide], the figures for the half-inhibitory concentration (IC50) against Nav 1.7 [1], at Nav 1.5 and against Nav 1.7 [2] were 43.5 nM, more than 10 µM and 138 nM, respectively.
